Assay results reported in patent US5204326.
Read-outs that look alike come from different tables or passages of the source.

Details: amide bond
[1] = the molecule shown is the open-chain precursor, 23-membered ring, as Reference Example 8 (not in excerpt), 3 steps

With “H-Asn-Leu-Ser(Bzl)-Thr(Bzl)-Lys(COCH2CH2CO-ONp)-OMe?” the ring closure, isolated yield [1] was 34.9%.
Work on “H-Abu-Asn-Leu-Ser(Bzl)-Thr(Bzl)-Cec(ONp)-OMe?” yielded a ring closure, isolated yield (the molecule shown is the open-chain precursor, as Reference Example 8 (not in excerpt), 3 steps) of 47.1%.
With “H-Ser(Bzl)-Asn-Leu-Ser(Bzl)-Thr(Bzl)-Tyr(CH2CO-ONp)-OMe?” the ring closure, isolated yield (the molecule shown is the open-chain precursor, 25-membered ring, as Reference Example 8, then Reference Example 9 (not in excerpt), 4 steps) was 43.8%.
Work on Acp-Asn-Leu-Ser(Bzl)-Thr(Bzl)-Asp-OEt yielded a ring closure, isolated yield (23-membered ring, ONp active ester (from TFA-ONp)/pyridine, pyridine/DMF, 50.0 °C, 3 steps) of 26.6%.
“H-Ser(Bzl)-Asn-Leu-Ser(Bzl)-Thr(Bzl)-Cpc(ONp)-OMe?” showed a ring closure, isolated yield [1] of 55.9%.
